Literature values in US12482537B2, “System of predicting sensitivity of Klebsiella against MeropeneM and method” (priority 2023, dated 2025).

Test system: carbapenem resistant Klebsiella pneumoniae
Details: isolates from 2014 to 2017 (252/403)

Q: Which “resistance rate against meropenem” value does the source give for `C[C@@H](O)[C@H]1C(=O)N2C(C(=O)O)=C(S[C@@H]3CN[C@H](C(=O)N(C)C)C3)[C@H](C)[C@H]12` [Meropenem] here?
A: 62.5%
